We go through 44 substances from patent US10004792B2, “Peptides and combination of peptides for use in immunotherapy against various cancers” (immatics biotechnologies GmbH, priority 2015, dated 2018).

The subject of one assay is CD8+ T cells. As to the kind of experiment: In vitro immunogenicity: T-cell priming with aAPCs loaded with peptide/MHC and anti-CD28, multimer staining. The class given is cell-based, human. The conditions noted are these: healthy donor CD8+ T cells, three stimulation cycles, multimer readout. The source says:
In order to obtain information regarding the immunogenicity of the TUMAPs of the present invention, the inventors performed investigations using an in vitro T-cell priming assay based on repeated stimulations of CD8+ T cells with artificial antigen presenting cells (aAPCs) loaded with peptide/MHC complexes and anti-CD28 antibody.
In order to perform in vitro stimulations by artificial antigen presenting cells loaded with peptide-MHC complex (pMHC) and anti-CD28 antibody, the inventors first isolated CD8+ T cells from fresh HLA-A*02 leukapheresis products via positive selection using CD8 microbeads (Miltenyi Biotec, Bergisch-Gladbach, Germany) of healthy donors obtained from the University clinics Mannheim, Germany, after informed consent.
PBMCs and isolated CD8+ lymphocytes were incubated in T-cell medium (TCM) until use consisting of RPMI-Glutamax (Invitrogen, Karlsruhe, Germany) supplemented with 10% heat inactivated human AB serum (PAN-Biotech, Aidenbach, Germany), 100 U/ml Penicillin/100 μg/ml Streptomycin (Cambrex, Cologne, Germany), 1 mM sodium pyruvate (CC Pro, Oberdorla, Germany), 20 µg/ml Gentamycin (Cambrex). 2.5 ng/ml IL7 (PromoCell, Heidelberg, Germany) and 10 U/ml IL-2 (Novartis Pharma, Nurnberg, Germany) were also added to the TCM at this step.
Generation of pMHC/anti-CD28 coated beads, T-cell stimulations and readout was performed in a highly defined in vitro system using four different pMHC molecules per stimulation condition and 8 different pMHC molecules per readout condition.
The purified co-stimulatory mouse IgG2a anti human CD28 Ab 9.3 (Jung et al., 1987) was chemically biotinylated using Sulfo-N-hydroxysuccinimidobiotin as recommended by the manufacturer (Perbio, Bonn, Germany). Beads used were 5.6 μm diameter streptavidin coated polystyrene particles (Bangs Laboratories, Illinois, USA).
pMHC used for positive and negative control stimulations were A*0201/MLA-001 (peptide […] (SEQ ID NO. 303) from modified Melan-A/MART-1) and A*0201/DDX5-001 ([…] from DDX5, SEQ ID NO. 304), respectively.
800.000 beads/200 μl were coated in 96-well plates in the presence of 4×12.5 ng different biotin-pMHC, washed and 600 ng biotin anti-CD28 were added subsequently in a volume of 200 μl. Stimulations were initiated in 96-well plates by co-incubating 1×10^6 CD8+ T cells with 2×10^5 washed coated beads in 200 μI TCM supplemented with 5 ng/ml IL-12 (PromoCell) for 3 days at 37° C. Half of the medium was then exchanged by fresh TCM supplemented with 80 U/ml IL-2 and incubating was continued for 4 days at 37° C. This stimulation cycle was performed for a total of three times. For the pMHC multimer readout using 8 different pMHC molecules per condition, a two-dimensional combinatorial coding approach was used as previously described (Andersen et al., 2012) with minor modifications encompassing coupling to 5 different fluorochromes. Finally, multimeric analyses were performed by staining the cells with Live/dead near IR dye (Invitrogen, Karlsruhe, Germany), CD8-FITC antibody clone SK1 (BD, Heidelberg, Germany) and fluorescent pMHC multimers. For analysis, a BD LSRII SORP cytometer equipped with appropriate lasers and filters was used. Peptide specific cells were calculated as percentage of total CD8+ cells. Evaluation of multimeric analysis was done using the FlowJo software (Tree Star, Oreg., USA). In vitro priming of specific multimer+CD8+ lymphocytes was detected by comparing to negative control stimulations.
For the substance “291 (KLDETGNSL; listed as Homo sapiens) [compound 291]”, the “Wells (in vitro immunogenicity)” value is listed as “+ (<20% = +)”.
On the same count and under the same terms, with “293 (FLVDGSWSI; listed as Homo sapiens) [compound 293]” the entry was “+ (<20% = +)”; with “295 (YYPGVILGF; listed as Homo sapiens) [compound 295]”, “++ (20%-49% = ++)”; with “298 (RYLEGTSCI; listed as Homo sapiens) [compound 298]”, “+ (<20% = +)”.

The assay is the same for the next values; noted with them: in vitro immunogenicity of HLA class I peptides; peptide-specific multimer staining after aAPC priming of CD8+ T cells.
For “158 (HYSQELSLLYL; listed as Homo sapiens) [compound 158]”, the “Wells positive [%]” value is “+ (<20% = +)”.
Still for that read-out and setting: to “167 (NYINRILKL; listed as Homo sapiens) [compound 167]” belongs “+ (<20% = +)”; to “35 (FLLPFSTVYL; listed as Homo sapiens) [compound 35]”, “+ (<20% = +)”.
For “268 (QYLGQIQHI; listed as Homo sapiens) [compound 268]”, the “Wells positive [%]” value was “+ (<20% = +)”.
With “23 (SLFSDEFKV; listed as Homo sapiens) [compound 23]”, the “Wells positive [%]” value was “++++ (>=70% = ++++)”.
For the substance “163 (DYLKGLASF; listed as Homo sapiens) [compound 163]”, the “Wells positive [%]” value was “+ (<20% = +)”.
Turning to “18 (ILLDLTDNRL; listed as Homo sapiens) [compound 18]”, the “Wells positive [%]” value was “+ (<20% = +)”.
In the case of “149 (ILNTHITEL; listed as Homo sapiens) [compound 149]”, the “Wells positive [%]” value is “+ (<20% = +)”.
On the same count and under the same terms, with “159 (LYNKGFIYL; listed as Homo sapiens) [compound 159]” the entry was “++++ (>=70% = ++++)”; with “165 (DYTTWTALL; listed as Homo sapiens) [compound 165]”, “+ (<20% = +)”; with “204 (TYELRYFQI; listed as Homo sapiens) [compound 204]”, “+ (<20% = +)”.
In the case of “31 (TITETTVEV; listed as Homo sapiens) [compound 31]”, the “Wells positive [%]” value was “+ (<20% = +)”.
In the case of “5 (GIVAHIQEV; listed as Homo sapiens) [compound 5]”, the “Wells positive [%]” value was “+ (<20% = +)”.
“218 (YYKSTSSAF; listed as Homo sapiens) [compound 218]”: the “Wells positive [%]” value is recorded as “+ (<20% = +)”.
As to “230 (KLQNIMMLL; listed as Homo sapiens) [compound 230]”, the “Wells positive [%]” value is listed as “++++ (>=70% = ++++)”.
As to “197 (EYSLFPGQVVI; listed as Homo sapiens) [compound 197]”, the “Wells positive [%]” value is on record as “+ (<20% = +)”.

Another assay addresses HLA-A*02 (Homo sapiens, UniProt P04439, D140Y/D185E/D98H/E176V/E277Q/G131W/G231S/I119V/I121R/I166T/I218V/L300P/N151K/N90K/P208A/P217A/Q86G/Q94H/R138H/R169H). The assay is described as follows: MHC binding assay (UV-ligand exchange, beta2m ELISA), HLA-A*02. The note with it: peptide exchange yield, binding to HLA-A*02, UV-ligand exchange, β2m ELISA. The source says:
(§1) Candidate peptides for T cell based therapies according to the present invention were further tested for their MHC binding capacity (affinity). The individual peptide-MHC complexes were produced by UV-ligand exchange, where a UV-sensitive peptide is cleaved upon UV-irradiation, and exchanged with the peptide of interest as analyzed. Only peptide candidates that can effectively bind and stabilize the peptide-receptive MHC molecules prevent dissociation of the MHC complexes. To determine the yield of the exchange reaction, an ELISA was performed based on the detection of the light chain (β2m) of stabilized MHC complexes. The assay was performed as generally described in Rodenko et al. (Rodenko et al., 2006).
(§2) 96 well MAXISorp plates (NUNC) were coated over night with 2 ug/ml streptavidin in PBS at room temperature, washed 4× and blocked for 1 h at 37° C. in 2% BSA containing blocking buffer. Refolded HLA-A*02:01/MLA-001 monomers served as standards, covering the range of 15-500 ng/ml. Peptide-MHC monomers of the UV-exchange reaction were diluted 100 fold in blocking buffer. Samples were incubated for 1h at 37° C., washed four times, incubated with 2 ug/ml HRP conjugated anti-62m for 1 h at 37° C., washed again and detected with TMB solution that is stopped with […]. Absorption was measured at 450 nm. Candidate peptides that show a high exchange yield (preferably higher than 50%, most preferred higher than 75%) are generally preferred for a generation and production of antibodies or fragments thereof, and/or T cell receptors or fragments thereof, as they show sufficient avidity to the MHC molecules and prevent dissociation of the MHC complexes.
With “100 (ALLGMIIVGV; listed as Homo sapiens) [compound 100]”, the Peptide exchange result is reported as “+ (<20% = +)”.
As to “248 (YLDRFLAGV; listed as Homo sapiens) [compound 248]”, the Peptide exchange result was “++++ (>=75% = ++++)”.
Take “3 (KLEENGDLYL; listed as Homo sapiens) [compound 3]”: the Peptide exchange result is reported as “++++ (>=75% = ++++)”.
Consider “229 (AILAHLNTV; listed as Homo sapiens) [compound 229]”, for which the Peptide exchange entry was “++++ (>=75% = ++++)”.
Same read-out and setting: with “133 (ALLPRLHQL; listed as Homo sapiens) [compound 133]” the entry was “++++ (>=75% = ++++)”; with “42 (LLDSVSRL; listed as Homo sapiens) [compound 42]”, “+ (<20% = +)”.
Regarding “245 (SLLDLPLSL; listed as Homo sapiens) [compound 245]”, the Peptide exchange result is recorded as “++++ (>=75% = ++++)”.
Consider “92 (GLLFSLRSV; listed as Homo sapiens) [compound 92]”, for which the Peptide exchange result is reported as “++++ (>=75% = ++++)”.
On the same count and under the same terms, to “82 (FIFDEAEKL; listed as Homo sapiens) [compound 82]” belongs “+ (<20% = +)”; to “95 (GLLGSLFFL; listed as Homo sapiens) [compound 95]”, “++++ (>=75% = ++++)”.
On the same count and under the same terms, with “120 (VTPVTVSAV; listed as Homo sapiens) [compound 120]” the entry was “+ (<20% = +)”; with “125 (SLADYEHFV; listed as Homo sapiens) [compound 125]”, “++++ (>=75% = ++++)”.
For the substance “16 (YTLDIPVLFGV; listed as Homo sapiens) [compound 16]”, the Peptide exchange entry was “++++ (>=75% = ++++)”.
Turning to “84 (ALCPRIHEV; listed as Homo sapiens) [compound 84]”, the Peptide exchange entry is “++++ (>=75% = ++++)”.
On the same count and under the same terms, to “257 (GLYTDPCGV; listed as Homo sapiens) [compound 257]” belongs “++++ (>=75% = ++++)”; to “1 (LLYPEPWSV; listed as Homo sapiens) [compound 1]”, “++++ (>=75% = ++++)”.
With “34 (FLLATEVVTV; listed as Homo sapiens) [compound 34]”, the Peptide exchange result is “++++ (>=75% = ++++)”.
On to “112 (SLGKFTFDV; listed as Homo sapiens) [compound 112]”, for which the Peptide exchange entry is listed as “++++ (>=75% = ++++)”.
Still for that read-out and setting: with “258 (LLSERFINV; listed as Homo sapiens) [compound 258]” the entry was “++++ (>=75% = ++++)”; with “51 (LLFSRLCGA; listed as Homo sapiens) [compound 51]”, “++++ (>=75% = ++++)”.
Still for that read-out and setting: to “147 (YLMDDTVEI; listed as Homo sapiens) [compound 147]” belongs “++++ (>=75% = ++++)”; to “129 (RLQDILWFL; listed as Homo sapiens) [compound 129]”, “++++ (>=75% = ++++)”; to “14 (ILAKDLFEI; listed as Homo sapiens) [compound 14]”, “++++ (>=75% = ++++)”.
“126 (QMFQYFITV; listed as Homo sapiens) [compound 126]”: the Peptide exchange result was “++++ (>=75% = ++++)”.

In another assay the test system is HLA-A*24. The assay is described as follows: MHC binding assay (UV-ligand exchange, beta2m ELISA), HLA-A*24. On the set-up: species or system human. The note with it: peptide exchange yield, binding to HLA-A*24, UV-ligand exchange, β2m ELISA.
Text: as §1, §2
Consider “158 (HYSQELSLLYL; listed as Homo sapiens) [compound 158]”, for which the Peptide exchange result is listed as “++++ (>=75% = ++++)”.
Consider “167 (NYINRILKL; listed as Homo sapiens) [compound 167]”, for which the Peptide exchange result is reported as “++++ (>=75% = ++++)”.
Regarding “163 (DYLKGLASF; listed as Homo sapiens) [compound 163]”, the Peptide exchange result is on record as “++++ (>=75% = ++++)”.
“159 (LYNKGFIYL; listed as Homo sapiens) [compound 159]”: the Peptide exchange result is reported as “++++ (>=75% = ++++)”.
Turning to “165 (DYTTWTALL; listed as Homo sapiens) [compound 165]”, the Peptide exchange entry is reported as “++++ (>=75% = ++++)”.
As to “204 (TYELRYFQI; listed as Homo sapiens) [compound 204]”, the Peptide exchange entry is reported as “++++ (>=75% = ++++)”.
